The record followed here is patent publication US20140171404A1, “Autotaxin inhibitors” (NOVARTIS AG, priority 2012, published 2014).

The target in this assay is T1, Recombinant human ATX (Homo sapiens, UniProt Q13822).
T1 construct: made in house; host or cells: human embryonic kidney (HEK) cells
Nature of the assay: Assessing ATX inhibition: released choline, Amplex Red fluorescence. It counts as biochemical. Conditions: ATX 10 nM, LPC 18:1 10 μM, pre-incubated with ATX at 37° C. for 20 minutes; Table 1, exemplified compounds; read-out: IC50. Here is the method:
LPC (oleoyl (18:1)) was purchased from Avanti Polar Lipids (Alabaster; AL) and solubilized in methanol to 20 mM. Amplex Red was obtained from Invitrogen Life Technologies (Paisley, UK) and dissolved in DMSO to 10 mM. Choline oxidase and horseradish peroxidase (HRP) were obtained from Sigma Aldrich (Dorset, UK) and dissolved in HBSS to 20 U/ml and 200 U/ml respectively. All reagents were stored at −20° C. in single use aliquots. All experimental measurements were performed in assay buffer made up immediately prior to use (HBSS, 0.01% BSA essentially fatty acid free).
Recombinant human ATX was prepared at Novartis (Basel, CH) in a human embryonic kidney (HEK) cell preparation, and stored in single use aliquots of […] (26 μM) stocks stored at −80° C.
All experimental measurements were performed in black 384 well polystyrene (low volume, round bottom, Corning (3676)) plates. PerkinElmer EnVision (Fluorescence Intensity/Absorbance Monochromator) or Tecan Infinite 200 PRO series plate reader was used to detect change in fluorescent intensity.
ATX activity was determined by measurement of released choline in reactions containing ATX (10 nM), choline oxidase (0.1 U/ml), HRP (100 U/ml), amplex red (50 μM) and LPC 18:1 (10 μM). Compounds of the invention were prepared as 10 point serial dilutions from 1 μM in duplicate and pre-incubated with ATX at 37° C. for 20 minutes prior to the addition of remaining reagents. The liberated choline was measured from changes in fluorescence intensity (λex 530 nm, λem 590 nm) of the product resurofin at 37° C. every 2 minutes over a 40-minute period. ATX activity was measured as a slope of the linear portion of the progress curve, typically between 14 to 24 minutes.
Slope data was exported to Graphpad prism (Graphpad software, San Diego, Calif.) where data was fitted to equation 1.
Y=Bottom+(Top−Bottom)/(1+10̂((Log IC50−X)*HillSlope)) Equation 1: […]
With `CN(CCC1CCN(C(=O)OCc2cc(Cl)cc(Cl)c2)CC1)C(=O)c1cc(O)no1` [Example 1, 3,5-Dichlorobenzyl 4-(2-(3-hydroxy-N-methylisoxazole-5-carboxamido)ethyl) piperidine-1-carboxylate], the IC50 (in general, the concentration that inhibits the measured activity by half) came to 644 nM.

On to `COc1c(N(C)CCC2CCN(C(=O)OCc3cc(Cl)cc(Cl)c3)CC2)c(=O)c1=O` [Example 2], for which the IC50 is 248 nM.

Consider `CCOc1c(NCCC2CCN(C(=O)OCc3cc(Cl)cc(Cl)c3)CC2)c(=O)c1=O` [Example 3], for which the IC50 was 445 nM.

Consider `O=C(OCc1cc(Cl)cc(Cl)c1)N1CCC(CCNc2c(O)c(=O)c2=O)CC1` [Example 4], for which the IC50 was 728 nM.

Regarding `CC1CC(CNC(=O)CCc2cc(O)no2)CCN1C(=O)OCc1cc(Cl)cc(Cl)c1` (centres unmarked) [Example 5], the IC50 is 313 nM.

Take `CN(CCC1CCN(C(=O)OCc2cc(Cl)cc(Cl)c2)CC1)C(=O)Cc1c[nH]nn1` [Example 6, 3,5-Dichlorobenzyl 4-(2-(N-methyl-2-(1H-1,2,3-triazol-4-yl)acetamido)ethyl)piperidine-1-carboxylate]: the IC50 turned out to be 62 nM.

As to `O=C(Cc1c[nH]nn1)NCCC1CCN(C(=O)OCc2cc(Cl)cc(Cl)c2)CC1` [Example 7, 3,5-Dichlorobenzyl 4-(2-(2-(1H-1,2,3-triazol-4-yl)acetamido)ethyl)piperidine-1-carboxylate], the half-maximal inhibitory concentration (IC50) is 28 nM.

Consider `Cc1oc(=O)[nH]c1C(=O)N(C)CCC1CCN(C(=O)OCc2cc(Cl)cc(Cl)c2)CC1` [Example 8, 3,5-Dichlorobenzyl 4-(2-(N,5-dimethyl-2-oxo-2,3-dihydrooxazole-4-carboxamido)ethyl)piperidine-1-carboxylate], for which the IC50 worked out at 360 nM.

For the compound `O=C(/C=C/c1c[nH]cn1)NC1CCN(C(=O)OCc2cc(Cl)cc(Cl)c2)CC1` [Example 9, (E)-3,5-Dichlorobenzyl 4-(3-(1H-imidazol-4-yl)acrylamido)piperidine-1-carboxylate], the IC50 turned out to be 109 nM.

On to `O=C(O)CCCCC(=O)NC1CCN(C(=O)OCc2cc(Cl)cc(Cl)c2)CC1` [Example 10, 6-((1-(((3,5-Dichlorobenzyl)oxy)carbonyl)piperidin-4-yl)amino)-6-oxohexanoic acid], for which the IC50 was 543 nM.

In the case of `CCOc1c(NCCC2CN(C(=O)OCc3cc(Cl)cc(Cl)c3)CCO2)c(=O)c1=O` (centres unmarked) [Example 11, 3,5-Dichlorobenzyl 2-(2-((2-ethoxy-3,4-dioxocyclobut-1-en-1-yl)amino)ethyl)morpholine-4-carboxylate], the IC50 came out at 51 nM.

Regarding `O=C(NCCC1CN(C(=O)OCc2cc(Cl)cc(Cl)c2)CCO1)c1c[nH]c(=O)o1` (centres unmarked) [Example 12, 3,5-Dichlorobenzyl 2-(2-(2-oxo-2,3-dihydrooxazole-5-carboxamido)ethyl)morpholine-4-carboxylate], the IC50 came out at 520 nM.

For the compound `CN(CCC1CN(C(=O)OCc2cc(Cl)cc(Cl)c2)CCO1)C(=O)c1c[nH]c(=O)o1` (centres unmarked) [Example 13, 3,5-Dichlorobenzyl 2-(2-(N-methyl-2-oxo-2,3-dihydrooxazole-5-carboxamido)ethyl)morpholine-4-carboxylate], the IC50 is 828 nM.

In the case of `CCOc1c(N(C)CCC2CN(C(=O)OCc3cc(Cl)cc(Cl)c3)CCO2)c(=O)c1=O` (centres unmarked) [Example 14, 3,5-Dichlorobenzyl 2-(2-((2-ethoxy-3,4-dioxocyclobut-1-en-1-yl)(methyl)amino)ethyl)morpholine-4-carboxylate], the IC50 worked out at 540 nM.

Take `CN(CCC1CCN(C(=O)OCc2cc(Cl)cc(Cl)c2)CC1)C(=O)c1c[nH]c(=O)s1` [Example 15, 3,5-Dichlorobenzyl 4-(2-(N-methyl-2-oxo-2,3-dihydrothiazole-5-carboxamido)ethyl)piperidine-1-carboxylate]: the IC50 worked out at 29 nM.

In the case of `O=C(NCCC1CCN(C(=O)OCc2cc(Cl)cc(Cl)c2)CC1)c1nn[nH]n1` [Example 16, 3,5-Dichlorobenzyl 4-(2-(2H-tetrazole-5-carboxamido)ethyl)piperidine-1-carboxylate], the IC50 came to 596 nM.

Turning to `O=C(CCCc1c[nH]nn1)NC1CCN(C(=O)OCc2cc(Cl)cc(Cl)c2)CC1` [Example 17, 3,5-Dichlorobenzyl 4-(4-(1H-1,2,3-triazol-4-yl)butanamido)piperidine-1-carboxylate], the IC50 amounted to 2 nM.

`CN(C(=O)CCCc1c[nH]nn1)C1CCN(C(=O)OCc2cc(Cl)cc(Cl)c2)CC1` [Example 18, 3,5-Dichlorobenzyl 4-(N-methyl-4-(1H-1,2,3-triazol-4-yl)butanamido)piperidine-1-carboxylate]: the IC50 was found to be 94 nM.

With `O=C(NCCC1CCN(C(=O)OCc2cc(Cl)cc(Cl)c2)CC1)c1c[nH]c(=O)o1` [Example 21, 3,5-Dichlorobenzyl 4-(2-(2-oxo-2,3-dihydrooxazole-5-carboxamido)ethyl)piperidine-1-carboxylate], the IC50 was determined as 106 nM.

Turning to `O=C(CCc1cc(O)no1)NCCC1CCN(C(=O)OCc2cc(Cl)cc(Cl)c2)CC1` [Example 22, 3,5-Dichlorobenzyl 4-(2-(3-(3-hydroxyisoxazol-5-yl)propanamido)ethyl)piperidine-1-carboxylate], the IC50 is 586 nM.

For `O=C(CCc1cc(O)no1)NC1CCN(C(=O)OCc2cc(Cl)cc(Cl)c2)CC1` [Example 23, 3,5-Dichlorobenzyl 4-(3-(3-hydroxyisoxazol-5-yl)propanamido)piperidine-1-carboxylate], the IC50 stood at 396 nM.

Regarding `CN(CCC1CCN(C(=O)OCc2cc(Cl)cc(Cl)c2)CC1)C(=O)c1coc(=O)[nH]1` [Example 24, 3,5-Dichlorobenzyl 4-(2-(N-methyl-2-oxo-2,3-dihydrooxazole-4-carboxamido)ethyl)piperidine-1-carboxylate], the IC50 amounted to 624 nM.

Take `CN(CCC1CCN(C(=O)OCc2cc(Cl)cc(Cl)c2)CC1)C(=O)c1cc(O)[nH]n1` [Example 25, 3,5-Dichlorobenzyl 4-(2-(5-hydroxy-N-methyl-1H-pyrazole-3-carboxamido)ethyl)piperidine-1-carboxylate]: the IC50 worked out at 520 nM.

As to `CN(CCCN1CCN(C(=O)OCc2cc(Cl)cc(Cl)c2)CC1)C(=O)c1c[nH]c(=O)o1` [Example 26, 3,5-Dichlorobenzyl 4-(3-(N-methyl-2-oxo-2,3-dihydrooxazole-5-carboxamido)propyl)piperazine-1-carboxylate], the IC50 was determined as 156 nM.

For `O=C(NCCN1CCN(C(=O)OCc2cc(Cl)cc(Cl)c2)CC1)c1c[nH]c(=O)o1` [Example 27, 3,5-Dichlorobenzyl 4-(2-(2-oxo-2,3-dihydrooxazole-5-carboxamido)ethyl)piperazine-1-carboxylate], the IC50 is 375 nM.

For the compound `CN(CCC1CCN(C(=O)OCc2cc(Cl)cc(Cl)c2)CC1)C(=O)c1noc(=O)[nH]1` [Example 28, 3,5-Dichlorobenzyl 4-(2-(N-methyl-5-oxo-4,5-dihydro-1,2,4-oxadiazole-3-carboxamido)ethyl)piperidine-1-carboxylate], the IC50 was 786 nM.

Take `CN(CCC1CCN(C(=O)OCc2cc(Cl)cc(Cl)c2)CC1)C(=O)c1nn[nH]n1` [Example 29, 3,5-Dichlorobenzyl 4-(2-(N-methyl-2H-tetrazole-5-carboxamido)ethyl)piperidine-1-carboxylate]: the IC50 was 541 nM.

Take `CN(CCC1CCN(C(=O)/C=C/c2cc(Cl)cc(Cl)c2)CC1)C(=O)c1c[nH]c(=O)o1` [Example 30, (E)-N-(2-(1-(3-(3,5-Dichlorophenyl)acryloyl)piperidin-4-yl)ethyl)-N-methyl-2-oxo-2,3-dihydrooxazole-5-carboxamide]: the IC50 came to 274 nM.

`O=C(NCCC1CCN(C(=O)/C=C/c2cc(Cl)cc(Cl)c2)CC1)c1c[nH]c(=O)o1` [Example 31, (E)-N-(2-(1-(3-(3,5-Dichlorophenyl)acryloyl)piperidin-4-yl)ethyl)-2-oxo-2,3-dihydrooxazole-5-carboxamide]: the IC50 turned out to be 387 nM.

Turning to `O=C(CCc1cc(O)no1)NCC1CCN(C(=O)OCc2cc(Cl)cc(Cl)c2)CC1` [Example 33, 3,5-Dichlorobenzyl 4-((3-(3-hydroxyisoxazol-5-yl)propanamido)methyl)piperidine-1-carboxylate], the IC50 amounted to 131 nM.

Regarding `O=C(NCCCN1CCN(C(=O)OCc2cc(Cl)cc(Cl)c2)CC1)c1c[nH]nn1` [Example 34, 3,5-Dichlorobenzyl 4-(3-(1H-1,2,3-triazole-4-carboxamido)propyl)piperazine-1-carboxylate], the IC50 is 282 nM.

Take `CN(CCC1CCN(C(=O)OCc2cc(Cl)cc(Cl)c2)CC1)C(=O)c1c[nH]nn1` [Example 35, 3,5-Dichlorobenzyl 4-(2-(N-methyl-1H-1,2,3-triazole-4-carboxamido)ethyl)piperidine-1-carboxylate]: the IC50 turned out to be 175 nM.
